Results reported in patent US12257248B2, “Bronchodilators for treating obstructive lung disease” (University of South Florida, priority 2020, dated 2025).
Where two headings read alike, the source gives them in different places.

Assays:
primary HASM cells = test: HASM cell relaxation by magnetic twisting cytometry (MTC); format: cell-based, human; conditions: for Relaxation (% basal): primary HASM cells passages 5-7, non-asthmatic donor, MTC, single concentration 500 μM; for rank of HASM cell relaxation response (FIG. 7): 500 μM, added at 60 seconds, 200-400 cells per compound
Description: FIG. 7 depicts HASM cell relaxation responses to selected compounds. Compounds were studied at a concentration of 500 μM and were added to the culture media at the 60 second time point (arrow). Results are from measurements of 200-400 cells per compound. *, P<0.01 vs the T5-1 reference response.
To correlate the [Ca^2+]i responses of the compounds to relevant physiologic function, we turned to measurements of single-cell mechanics in HASM cells using magnetic twisting cytometry (MTC) as previously described. Here, cultured primary HASM cells at passages 5-7 derived from a non-asthmatic donor lung were utilized. […] Positive controls (FIG. 6) included the β-agonists albuterol (partial agonist), formoterol (full agonist) and forskolin, which increases cAMP by direct activation of adenylyl cyclase.

D9-HASM cells = test: [Ca2+]i stimulation screening assay (Fluo-4) in D9-HASM cells; format: cell-based, human; conditions: for EC50: Fluo-4, mean±SE from 4-8 experiments, read-out: EC50 ([Ca^2+]i stimulation); for Emax / Rmax (% ionomycin): maximal [Ca2+]i response normalized to ionomycin 2.0 μM; for Emax: read-out: Rmax (% ionomycin)
Description: Cultured D9 telomerase reverse transcriptase immortalized HASM (D9-HASM) cells were utilized for the [Ca^2+]i screening assays. Cells were seeded onto 96 well plates and loaded with Fluo-4 direct. The [Ca^2+]i responses to multiple concentrations of potential agonists were determined as a measure of receptor activation. Control cells were exposed to the non-specific ionophore ionomycin at 2.0 μM (a maximal effective concentration, FIG. 4). Results from TAS2R agonist studies were normalized to the ionomycin response in order to compare the maximal responses (Rmax) between agonists. The concentration-response data were fit to a four component logistic regression model (sigmoid curve) using iterative non-linear regression methods to determine the EC50 and Rmax. The structures of the previously identified agonist termed T5-1, and 18 derivatives (denoted as T5-2 through T5-19) are shown in FIG. 2. Representative [Ca^2+]i responses to these compounds are shown in FIG. 4, and mean results from multiple concentration-response experiments are shown in FIG. 3. Table 1 summarizes the results in terms of potency (EC50) and efficacy (Rmax), with statistical comparisons to T5-1.

Row | Structure (SMILES) | Relaxation (% basal) (primary HASM cells) | EC50 (D9-HASM cells; Homo sapiens) [µM] | Emax (D9-HASM cells; Homo sapiens) [%] | rank of HASM cell relaxation response (FIG. 7) (primary HASM cells) | EC50 (D9-HASM cells) [µM] | Rmax (% ionomycin) (D9-HASM cells)
1 | c1cnc2c(c1)ccc1ncccc12 [T5-3, 1,7-Phenanthroline] | 34.8 ± 1.36 | 24.9 ± 4.58 | 121 ± 16.7 |  |  | 
2 | Nc1cc2cccnc2c2ncccc12 [T5-9, 1,10-Phenanthrolin-5-amine] | 7.2 ± 1.95 | 4.6 ± 0.42 | 176 ± 14.2 |  |  | 
3 | Cc1ccc2ccc3ccc(C)nc3c2n1 [T5-5, 2,9-Dimethyl-1,10-phenanthroline] | 12.0 ± 1.47 | 33.3 ± 6.4 | 143 ± 13.1 |  |  | 
4 | O=[N+]([O-])c1cc2cccnc2c2ncccc12 [T5-13, 5-Nitro-1,10-phenanthroline] | 12.8 ± 2.00 | 36 ± 3.85 | 134 ± 11.9 |  |  | 
5 | Cc1cc2cccnc2c2ncccc12 [T5-12, 5-Methyl-1,10-phenanthroline] |  | 12.1 ± 1.99 | 181 ± 24.6 |  |  | 
6 | Cc1ccnc2c1ccc1c(C)ccnc12 [T5-6, 4,7-Dimethyl-1,10-phenanthroline] | 5.3 ± 1.95 | 1.39 ± 0.19 | 147 ± 16.7 |  |  | 
7 | c1cnc2c(c1)ccc1cccnc12 [T5-1, 1,10-Phenanthroline, reference compound] | 10.8 ± 2.17 | 29.7 ± 5.57 | 149 ± 10.2 |  |  | 
8 | COc1c(OC)c2cccnc2c2ncccc12 [T5-15, 5,6-Dimethoxy-1,10-phenanthroline] | 26.7 ± 1.65 | 7.48 ± 0.78 | 127 ± 16.1 | then 15 |  | 
9 | Clc1cc2cccnc2c2ncccc12 [T5-11, 5-Chrolo-1,10-phenanthroline] | 18.0 ± 2.13 |  |  | then 18 and 11 | 11.1 ± 2 | 183 ± 7.3
10 | Cc1ccnc(-c2cc(C)ccn2)c1 [T5-19, 4,4′-Dimethyl-2,2′-dipyridyl] |  |  |  |  | 60.6 ± 9.13 | 58.9 ± 2.95
11 | C=C(C)c1c(C(=C)C)c2cccnc2c2ncccc12 [T5-17, 5,6-di(prop-1-en-2yl)-1,10-phenanthroline] | 13.5 ± 2.59 | 25.5 ± 7.06 | 113 ± 19 |  |  | 
12 | Cc1c(C)c2cccnc2c2ncccc12 [T5-7, 5,6-Dimethyl-1,10-phenanthroline] | 9.0 ± 2.19 | 2.05 ± 0.2 | 163 ± 36.4 |  |  | 
13 | c1ccc(-c2ccccn2)nc1 [T5-2, 2,2′-Bipyridine] | −3.2 ± 1.67 |  | 16.4 ± 4.48 |  |  | 
14 | c1cnc2ccc3ncccc3c2c1 [T5-4, 4,7-Phenanthroline] | 15.3 ± 1.48 |  | 15.4 ± 3.37 |  |  | 
15 | Brc1cc2cccnc2c2ncccc12 [T5-10, 5-Bromo-1,10-phenanthroline] | 14.4 ± 1.93 | 4.35 ± 0.71 | 182 ± 25.7 |  |  | 
16 | O=C1C(=O)c2ccccc2-c2ccccc21 [T5-18, 9,10-Phenanthrenequinone] | 20.0 ± 2.00 | 5.08 ± 1.37 | 153 ± 5.2 | then 18 and 11 |  | 
17 | O=C1C(=O)c2cccnc2-c2ncccc21 [T5-8, 1,10-Phenanthroline-5,6-dione] | 50.2 ± 2.79 | 0.12 ± 0.05 | 199 ± 20.2 | greatest degree of relaxation |  | 
18 | c1cnc2c(c1)c1nccnc1c1cccnc12 [T5-14, Pyrazino[2,3-f][1,10]phenanthroline] | 6.1 ± 1.67 | 147 ± 2.26 | 34.5 ± 15.1 |  |  | 
19 | CCc1c(CC)c2cccnc2c2ncccc12 [T5-16, 5,6-Diethyl-1,10-phenanthroline] |  | 4.05 ± 0.8 | 183 ± 14.7 |  |  | 
